“Also recorded” adds a separate entry of the source.
Key:
T cell = T cell proliferative responses in humans (initial testing); assay type: cell-based; settings: some autoimmune disease patients
From the text: Thus, already the rat-defined T cell epitopes themselves could be used for therapeutical intervention in some individuals (certain HLA types).

[1] = test system: primed lymph node cells (PLNC); experiment: T cell proliferation assay, PLNC from peptide-immunised rats; assay type: cell-based, Lewis rats; settings: in vitro peptide 20 µg/ml
Description: (§1) Immunisations with synthetic peptides and primed lymph node populations: Rats were immunised with 50 µg of synthetic peptide in PBS/DDA in each hind footpad (i.e. 50 µg/footpad, 100 µg/rat). Ten days later, draining popliteal lymph nodes were removed, disaggregated, washed three times and used as a source of primed lymph node cells (PLNC). In some experiments, PLNC were derived as pooled inguinal and popliteal lymph nodes from AA rats 35-42 days post Mt immunisation.
(§2) T cell proliferation assays: PLNC were cultured in triplicate in 200 µl flat bottom microtitre wells (Costar) at 2 x 10^5 cells per well with or without antigen. In initial experiments PLNC were tested for responsiveness to individual peptides at concentrations of 5 and 20 µg/ml, and Mt, hsp65 and PPD over a range of concentrations. Concanavalin A (2 µg/ml) was used as a positive control for T cell proliferation. Cultures were incubated for 96 h at 37°C in a humidified atmosphere of 5% CO2. Cultures were pulsed for the final 16 h with [^3H] TdR (Amersham, U.K., 1 uCi/well) and TdR uptake measured using a liquid scintillation β counter. Assays using T cell lines were performed as above using 2 x 10^4 line cells per well with irradiated (30 Gy) syngeneic accessory cells (either 3 x 10^5 splenocytes/well or 10^6 thymocytes/well). Results are expressed as mean counts per minute (cpm) of triplicate cultures. In experiments where responses to Ag were low, responses were considered significant if the stimulation index (S.I. = mean cpm with Ag - mean cpm without Ag) was greater than two and Student's t tests gave p < 0.01.
To determine whether immunisation of rats with synthetic peptides was effective at priming for T cell reactivity to hsp65 epitopes, in vitro proliferative responses following immunisation with 100 µg of peptide each containing individual T cell epitopes were examined. PLNC isolated ten days after immunisation were tested for response to the immunising peptide, overlapping peptides and to hsp65 (Table II). PLNC responses were observed after immunisation with seven of the nine peptides. Responses were not seen after immunisation with peptides 386-400 and 511-525.
(§3) T cell responses by immunisation with hsp65 peptides. Rats were immunised with synthetic peptides containing individual hsp65 epitopes (100 µg peptide/DDA per rat). Ten days later PLNC were isolated and tested for responses to overlapping peptides (20 µg/ml). Peptide-specific T cell lines were generated by bulk in vitro stimulation of PLNC with immunising peptide. Lines were tested for responses to overlapping peptides (10 µg/ml). […] Results are expressed as mean cpm of triplicate cultures. All SEM were less than 20%.

adjuvant arthritis = experiment: Adjuvant arthritis (AA) induced with Mt in IFA, clinical arthritis score; assay type: in vivo, Lewis rats
Description: (§4) Induction and clinical assessment of experimental arthritis: Arthritis was induced by a single intradermal injection in the base of the tail. AA was induced with 0.5 mg Mt suspended in 100 µl IFA. CP20961 arthritis was induced with 2 mg CP20961 in 100 µl light mineral oil (Sigma). Rats were examined daily for clinical signs of arthritis. Severity of arthritis was assessed by scoring each paw from zero to four based on degree of swelling, erythema and deformity of the joints. Thus the maximum possible arthritis score was 16.
(§5) Modulation of arthritis with hsp65 peptides and epitope-specific T cell lines: Synthetic peptides corresponding to eight T cell epitopes present in mycobacterial hsp65 were tested for protective effects on arthritis development. Rats were immunised with 100 µg of individual peptide seven days prior to arthritis induction. Peptides were immunised in each hind footpad in 10 mg/ml DDA (50 µl/pad). Control rats received only PBS/DDA. Epitope-specific T cell lines were also tested for protective activity by intravenous administration of lines at the time of arthritis induction. T cell lines were restimulated in vitro with irradiated spleen APC and specific peptide. Four days later T cell blasts were harvested by ficoll gradient, washed and applied to a second ficoll gradient to remove any contaminating APC. T cells were washed twice in wash medium and twice in PBS and finally suspended at 2.5x10^7/ml in PBS. Immediately prior to injection of Mt, 200 µl (i.e. 5x10^6) T cells were injected i.v. in the tail vein.
The effects of preimmunisation with synthetic peptides containing individual epitopes on the development of AA were analysed (Fig. 7). The eight peptides which primed for epitope specific T cells were tested. Rats were immunised with 100 µg of peptide 7 days prior to AA-induction with Mt.

[2] = test system: T cell lines generated from hsp65-immunised rats; experiment: T cell proliferation assay, epitope-specific T cell lines generated from hsp65-immunised rats; assay type: cell-based, Lewis rats; settings: Line H.52
Description: as §2, with “In experiments where responses to Ag were low, responses were considered significant if the stimulation index (S.I. = mean cpm with Ag - mean cpm without Ag) was greater than two and Student's t tests gave p < 0.01.” left out
T cell lines were generated by restimulation of hsp65-PLNC with individual synthetic peptides. For epitopes where responses had been detected to two overlapping peptides, the line was generated using the peptide that induced strongest proliferation of hsp65-PLNC (e.g. for epitope 216-225, peptide 211-225 was used). […]

[3] = test system: Peptide-specific T cell lines; experiment: T cell proliferation assay, peptide-specific T cell lines from peptide-immunised rats; assay type: cell-based, Lewis rats; settings: for CPM T Cell Line: in vitro peptide 10 µg/ml
Description: as §2
T cell lines: T cell lines with specificity for mycobacterial hsp65 or peptides were generated by bulk stimulation of either hsp65-PLNC or Mt-PLNC. PLNC were cultured at 5 x 10^6/ml in culture medium supplemented with 2% normal rat serum (NRS) in the presence of 10 µg/ml Ag. After three days viable cells were harvested using a ficoll-isopaque gradient and cultured for a further four days in culture medium + 5% FCS and 5% TCGF (Con A-activated rat spleen supernatant). Seven days after initial stimulation lines were restimulated with irradiated spleen accessory cells and 10 µg/ml Ag in culture medium + NRS. Lines were maintained ir. this seven day restimulation cycle. Short term epitope-specific T cell lines were also generated from rats immunised with synthetic peptides. Peptide-PLNC were cultured as above in the presence of 10 µg/ml peptide.
Bulk stimulation generated T cell lines to eight of the nine peptides tested. These eight lines were tested for specificity after four in vitro restimulations (Table II). All responded to the immunising peptide and, to some extent, to hsp65.
as §3

[4] = test system: PLNC from preimmunised rats; experiment: T cell proliferation assay, PLNC of peptide-preimmunised AA rats 42 days after Mt; assay type: cell-based, Lewis rats; settings: rats preimmunised with the same peptide; peptide 20µg/ml
Description: as §1, §2
PLNC from preimmunised rats were tested for responsiveness to hsp65 epitopes 42 days after Mt administration (Fig. 8). […] Responses to peptide 176-190 containing the AA-associated epitope were found in all PLNC populations (and enhanced after 176-190 preimmunisation) with one exception.

[5] = test system: CP20961-induced arthritis; experiment: CP20961-induced arthritis, clinical arthritis score; assay type: in vivo, Lewis rats; settings: 100 µg peptide in DDA 7 days prior to 2 mg CP20961 in 100 µl mineral oil i.d.
Description: as §4
as §5, with “T cells were washed twice in wash medium and twice in PBS and finally suspended at 2.5x10^7/ml in PBS. Immediately prior to injection of Mt, 200 µl (i.e. 5x10^6) T cells were injected i.v. in the tail vein.” left out

hsp65-PLNC = experiment: T cell proliferation assay, hsp65-PLNC; assay type: cell-based, Lewis rats; settings: PLNC from hsp65-immunised rats; peptides 5 and 20 µg/ml
Description: Immunisations and primed lymph node populations: Rats were immunised with either Mt or hsp65. Mt was suspended at 5 mg/ml in IFA or DDA and 100 µl injected in each hind footpad (i.e. 500 µg/footpad, 1 mg/rat). Hsp65 (1 mg/ml in PBS) was mixed 1:1 with DDA and 100 µl injected (i.e. 50 µg/footpad, 100 µg/rat). Ten to 21 days later, draining popliteal lymph nodes were removed, disaggregated, washed three times and used as a source of primed lymph node cells (PLNC). In control experiments splenocytes and lymph nodes from unimmunised rats and PLNC from rats immunised with IFA or DDA/PBS alone were used.
as §2
Hsp65-PLNC were analysed for responsiveness to a panel of peptides covering the entire sequence of hsp65 (Fig. 3a). […] In terms of magnitude of response, three regions of the molecule (residues 176-190, 211-230 and 221-240) appeared to contain the "dominant" T cell epitopes, while regions 86-100. 251-270, 396-410 and 506-525 contained "subdominant" or minor epitopes.

[6] = 100 µg peptide in DDA, hind footpads, 7 days prior to AA induction with Mt

Substance | T cell proliferative responses in autoimmune disease patients (T cell) | CPM PLNC ([1]; PLNC 10 days after immunisation with peptide 256-270 (100 µg/DDA)) | protection against AA development after peptide preimmunisation (adjuvant arthritis; [6]) | mean maximum arthritis score (adjuvant arthritis; 100 µg peptide in DDA, hind footpads, 7 days prior to AA induction with Mt, 24 rats in five experiments, maximum possible score 16) | protection against AA development after peptide preimmunisation (adjuvant arthritis; 100 µg peptide in DDA, hind footpads, 7 days prior to AA induction with Mt, listed as hsp65 256-270) | rats that developed clinical signs of arthritis (adjuvant arthritis; of the 24 rats preimmunised with peptide, signs milder than in control rats) | permanent joint deformities (adjuvant arthritis; preimmunised rats that developed AA) | level of proliferation relative to the rat peptide [2] | CPM T Cell Line ([3]; T cell line from 256-270-immunised PLNC) | response of the line generated against M.256-270 (line P.m52) ([3]; irradiated syngeneic spleen APC) | PLNC response to the immunising peptide 42 days after Mt administration [4] | protection against CP20961-induced arthritis after peptide preimmunisation [5] | CPM PLNC ([1]; PLNC 10 days after immunisation with peptide 86-100 (100 µg/DDA), mean of triplicates) | CPM T Cell Line ([3]; T cell line from 86-100-immunised PLNC) | hsp65-PLNC proliferative response to peptide (hsp65-PLNC) | CPM PLNC ([1]; PLNC 10 days after immunisation with peptide 211-225 (100 µg/DDA)) | CPM T Cell Line ([3]; T cell line from 211-225-immunised PLNC)
peptide 256-270: synthetic 15mer, sequence 256-270 of SEQ ID No.1 (mycobacterial hsp65) | capable of inducing T cell proliferative responses | 16423 cpm | striking protective effect; also recorded: strong protection; also recorded: clear protective effects | 1.7 | Protection was observed | twelve | remarkably free of permanent deformities | five to ten fold higher | 69037 cpm | responded | marginal PLNC responses | strongly protected | – | – | – | – | –
peptide 86-100: synthetic 15mer, sequence 86-100 of SEQ ID No.1 (mycobacterial hsp65) (DGTTTATVLAQALVR; UniProt P9WPE7 86-100, looked up, fragment) | capable of inducing T cell proliferative responses | – | moderate protection; also recorded: moderate effect | – | – | – | – | – | – | – | – | – | 57925 cpm | 49422 cpm | subdominant | – | –
peptide 211-225: synthetic 15mer, residues 211-225 of mycobacterial hsp65; control peptide in arthritis models | – | – | did not influence AA development | – | – | – | – | – | – | – | strong responses | did not | – | – | – | 39765 cpm | 121978 cpm

— patent EP0751957B1, “PEPTIDE FRAGMENTS OF MICROBIAL STRESS PROTEINS AND PHARMACEUTICAL COMPOSITION MADE THEREOF FOR THE TREATMENT AND PREVENTION OF INFLAMMATORY DISEASES” (priority 1994, dated 2004)
